# Laboratory results as given in US20130042333A1, “MARKERS FOR CANCER PROGNOSIS AND THERAPY AND METHODS OF USE” (priority 2011, published 2013).
# What was measured:
# [1] = system: HBCx-14 breast tumor xenograft; conditions: A/C 2/100 or C 100 mg/kg, x2 cycles
# Source text: Tumor xenografts were generated by direct subcutaneous grafting into immunodeficient mice of human tumor surgical samples with informed written consent of the patients and maintained by serial transplantation. […] They are thus clinically relevant tumor models, as opposed to xenografts produced from tumor cell lines that have been obtained by in vitro culture and often passaged for many years (Fiebig, H. H. et al. Eur J Cancer 40, 802-820, 2004; Marangoni E., Vincent-Salomon A., Auger N. et al. Clin Cancer Res. 2007 Jul. 1; 13:3989-98).
# Chemotherapeutic drugs were administered by intraperitoneal route according to the following doses and schedules: adriamycin, 2 mg/kg, q3wk (Doxorubicin®, Teva Pharmaceuticals, France) and Cyclophosphamide, 100 mg/kg, q3wk (Endoxan®, Baxter, France). Irinotecan (Campto®, Pfizer Holding France), 50 mg/kg, q4dx4. Etoposide 12 mg/kg, qdx3. Ifosfamide 90 mg/kg, qdx3. bPARP inhibitor (AZD2281, Sequoia Research Products, UK) at 50 mg/kg (ip; qdx14). A second treatment cycle was performed with PARP inhibitor at 50 mg/kg (ip qdx5) during the nodule phase. Other pharmacological inhibitors are tested and administrated at the nodule phase: JAK1/2 Inhibitor (CP-690550) at 15 mg/kg (po qdx14), Epigallocatechin gallate (ECGC) (Sequoia Research Products, UK) at 30 mg/kg (ip qdx28), HDAC inhibitor (Trichostatine A), Retinoic acid at 50 mg/kg (ip qdx28) (Sigma-Aldrich, France). Breast tumor xenograft models were transplanted into 5-week old female Swiss nude mice, as described above, one tumor being transplanted into 5-10 recipients. When tumors reached a volume of 60-250 mm3, mice were individually identified and randomly assigned to the control or treated groups (12 to 20 mice per group). Tumor volume was evaluated by measuring two perpendicular diameters of the tumor, with a calliper, biweekly during the treatment period and once a week during the follow-up period. The formula TV (mm3)=[length (mm)×width (mm)2]/2 was used, where the length and the width were the longest and the shortest diameters of the tumor, respectively. All animals were weighted biweekly during the treatment period and the follow-up period. Mice were ethically sacrificed when the tumor volume reached 2000 mm3 Individual tumor growth delays (TGD) is calculated as the time in days required for individual tumors to reach 3- to 5-fold the initial median tumor volume. The tumor growth delay index (TGDI) is calculated as the median growth delay in the treated group divided by the median growth delay in the control group. The percentage ratio between the mean tumor volume of a treated group (T) and the mean tumor volume of the control group (C) is calculated.
# (§1) Tumors were collected from 5 independent mice at different time points: prior to treatment (=controls with volume<200 mm3); post-treatment residual tumors (=nodules with volume<32 mm3 until minimal palpation); recurrent tumors (=regrowth with volume>62.5 mm3) Tumors or nodules were processed for (1) FFPE (formalin-fixed paraffin-embedded) or for (2) snap frozen samples: samples were cut into 3-4 mm pieces (at least 3 fragments) and snap-frozen in liquid nitrogen, then transferred to −80° C. for storage. Samples were allocated for histology, microdissection and RNA analyses.
# Three categories of responders were defined based on the TGDI and T/C values.
# [2] = system: Stat1 (total, phospho-Tyr701, phospho-Ser727), Ifi27, Ifi44, Lcn2, Oas1; conditions: T330 breast cancer xenograft; after chemotherapy; compared with A/C combination
# Protocol: as §1
structure (smiles),measurement,setting,value
"O=P1(N(CCCl)CCCl)NCCCO1 (centres unmarked) [C, Cyclophosphamide]",% Nodules,[1],100%
same,% Tumor Relapse,[1],67%
same,Median Nodule Apparition Time,[1],11
same,Median Time of Relapse,[1],53
same,T/C % D21,[1],2%
same,TGDI,[1],6.66
same,median TGD × 5,[1],82.00 days
same,total and phosphorylated Stat1 protein (western blotting),[2],same increase in Stat 1 protein amount and phosphorylation level
